The supplement of paper PMC8149375

What was measured:
Settings in all cases: treatment: drug + dasatinib (fixed dose, not stated); 5 days
[1] = tested on: UO-31; assay: AUC of dose-response viability curve, drug + dasatinib, normalised to DMSO (arbitrary (AUC of normalised viability)); higher = less growth inhibition
Experimental: (§1)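 Primary HTS combination arm: 8 RCC cell lines treated with 8 doses (up to 10 uM) of each library drug plus a fixed dose of dasatinib (dose not stated) for 5 days; viability read by CellTiter-Glo and normalised to DMSO. GI50 was fitted with XLfit, AUC is the area under the dose-response curve, and minimum viability is the lowest fraction of DMSO viability across doses.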

[2] = tested on: A498; assay: as above
Experimental: as §1

[3] = tested on: CAKI-1; assay: as above
Experimental: as §1

[4] = tested on: ACHN; assay: as above
Experimental: as §1

[5] = tested on: SN12C; assay: as above
Experimental: as §1

[6] = tested on: 769-P; assay: as above
Experimental: as §1

[7] = tested on: TK-10; assay: as above
Experimental: as §1

[8] = tested on: 786-O; assay: as above
Experimental: as §1

[9] = tested on: UO-31; assay: minimum viability across doses, drug + dasatinib, relative to DMSO (fraction); higher = less growth inhibition
Experimental: as §1

[10] = tested on: A498; assay: as above
Experimental: as §1

[11] = tested on: CAKI-1; assay: as above
Experimental: as §1

[12] = tested on: ACHN; assay: as above
Experimental: as §1

[13] = tested on: SN12C; assay: as above
Experimental: as §1

[14] = tested on: 769-P; assay: as above
Experimental: as §1

[15] = tested on: TK-10; assay: as above
Experimental: as §1

[16] = tested on: 786-O; assay: as above
Experimental: as §1

[17] = tested on: UO-31; assay: GI50 of drug in presence of dasatinib; higher = less potent
Experimental: as §1

[18] = tested on: A498; assay: as above
Experimental: as §1

[19] = tested on: CAKI-1; assay: as above
Experimental: as §1

[20] = tested on: ACHN; assay: as above
Experimental: as §1

[21] = tested on: SN12C; assay: as above
Experimental: as §1

[22] = tested on: 769-P; assay: as above
Experimental: as §1

[23] = tested on: TK-10; assay: as above
Experimental: as §1

[24] = tested on: 786-O; assay: as above
Experimental: as §1

SMILES	GI50 of drug [20] [µM]	GI50 of drug [24] [µM]	AUC of dose-response viability curve [1]	AUC of dose-response viability curve [2]	AUC of dose-response viability curve [3]	AUC of dose-response viability curve [4]	AUC of dose-response viability curve [5]	AUC of dose-response viability curve [6]	AUC of dose-response viability curve [7]	AUC of dose-response viability curve [8]	minimum viability across doses [9]	minimum viability across doses [10]	minimum viability across doses [11]	minimum viability across doses [12]	minimum viability across doses [13]	minimum viability across doses [14]	minimum viability across doses [15]	minimum viability across doses [16]	GI50 of drug [17] [µM]	GI50 of drug [18] [µM]	GI50 of drug [19] [µM]	GI50 of drug [21] [µM]	GI50 of drug [22] [µM]	GI50 of drug [23] [µM]
O=C1c2ccccc2-c2n[nH]c3cccc1c23 + Cc1nc(Nc2ncc(C(=O)Nc3c(C)cccc3Cl)s2)cc(N2CCN(CCO)CC2)n1 [dasatinib]	6.75	5.35	3.27	3.27	2.12	2.22	2.5	2.38	2.45	2.31	0.529	0.693	0.106	0.261	0.629	0.558	0.407	0.351	> 10	> 10	2.88	> 10	> 10	6.49
C[C@@H](N)[C@H]1CC[C@H](C(=O)Nc2ccncc2)CC1.Cl.Cl + Cc1nc(Nc2ncc(C(=O)Nc3c(C)cccc3Cl)s2)cc(N2CCN(CCO)CC2)n1 [dasatinib]	> 10	> 10	3.41	3.4	2.31	2.61	2.5	2.34	2.98	2.82	0.697	0.877	0.584	0.673	0.657	0.588	0.754	0.699	> 10	> 10	> 10	> 10	> 10	> 10
Cc1nc(NC(=O)N2CCC[C@H]2C(N)=O)sc1-c1csc(C(C)(C)C)n1 [A66] + Cc1nc(Nc2ncc(C(=O)Nc3c(C)cccc3Cl)s2)cc(N2CCN(CCO)CC2)n1 [dasatinib]	1.13	0.323	3.38	3.64	2.31	2.1	2.33	2.43	2.49	1.88	0.761	0.784	0.539	0.429	0.527	0.548	0.561	0.352	> 10	> 10	> 10	> 10	> 10	> 10

Now from value to molecule, other results behind:

GI50 of drug [20] [µM]	GI50 of drug [24] [µM]	SMILES	AUC of dose-response viability curve [1]	AUC of dose-response viability curve [2]	AUC of dose-response viability curve [3]	AUC of dose-response viability curve [4]	AUC of dose-response viability curve [5]	AUC of dose-response viability curve [6]	AUC of dose-response viability curve [7]	AUC of dose-response viability curve [8]	minimum viability across doses [9]	minimum viability across doses [10]	minimum viability across doses [11]	minimum viability across doses [12]	minimum viability across doses [13]	minimum viability across doses [14]	minimum viability across doses [15]	minimum viability across doses [16]	GI50 of drug [17] [µM]	GI50 of drug [18] [µM]	GI50 of drug [19] [µM]	GI50 of drug [21] [µM]	GI50 of drug [22] [µM]	GI50 of drug [23] [µM]
2.48	3.72	CN(C)CCOc1ccc(-c2nc(-c3ccncc3)c(-c3ccc4c(c3)CC/C4=N/O)[nH]2)cc1 + Cc1nc(Nc2ncc(C(=O)Nc3c(C)cccc3Cl)s2)cc(N2CCN(CCO)CC2)n1 [dasatinib]	3.9	3.54	2.33	2.29	2.57	2.3	3.03	2.6	0.0511	0.0493	0.0583	0.0859	0.476	0.0915	0.497	0.0096	8.34	3.76	3.9	> 10	3.46	9.95
0.00424	1.21	COc1cc2c(Nc3ccc(NC(=O)c4ccccc4)cc3)ncnc2cc1OCCCN1CCOCC1 + Cc1nc(Nc2ncc(C(=O)Nc3c(C)cccc3Cl)s2)cc(N2CCN(CCO)CC2)n1 [dasatinib]	3.27	3.33	1.76	1.54	2.43	2.17	2.35	2.13	0.0966	0.283	0.0572	0.095	0.383	0.24	0.191	0.0181	5.77	9.27	0.385	> 10	2.91	4.12
> 10	> 10	CC1(C)CCC(CN2CCN(c3ccc(C(=O)NS(=O)(=O)c4ccc(NCC5CCOCC5)c([N+](=O)[O-])c4)c(Oc4cnc5[nH]ccc5c4)c3)CC2)=C(c2ccc(Cl)cc2)C1 [ABT-199 (GDC-0199 )] + Cc1nc(Nc2ncc(C(=O)Nc3c(C)cccc3Cl)s2)cc(N2CCN(CCO)CC2)n1 [dasatinib]	3.9	3.56	2.29	2.01	2.51	2.58	2.39	2.43	1	0.899	0.592	0.542	0.68	0.692	0.61	0.586	> 10	> 10	> 10	> 10	> 10	> 10
1.06	0.136	CC1(C)CCC(c2ccc(Cl)cc2)=C(CN2CCN(c3ccc(C(=O)NS(=O)(=O)c4ccc(N[C@H](CCN5CCOCC5)CSc5ccccc5)c(S(=O)(=O)C(F)(F)F)c4)cc3)CC2)C1 [ABT-263 (Navitoclax)] + Cc1nc(Nc2ncc(C(=O)Nc3c(C)cccc3Cl)s2)cc(N2CCN(CCO)CC2)n1 [dasatinib]	2	3.01	2.36	1.9	2.48	1.92	2.03	1.46	0.00471	0.608	0.555	0.0781	0.502	0.024	0.0882	0.00344	0.4	> 10	> 10	> 10	0.768	1.08
